The NIST ThermoML archive (doi:10.1021/je300102d)

Test: xn = mol fraction of the nth substance listed
Conditions: 101 kPa, Liquid; for viscosity: Concentric cylinders viscometry; for mass density: Vibrating tube method

N [ammonia] + O
Conditions | mass density, x1 = 0.0268 [kg/m3] | mass density, x1 = 0.0505 [kg/m3] | mass density, x1 = 0.1124 [kg/m3] | mass density, x1 = 0.148 [kg/m3] | mass density, x1 = 0.3043 [kg/m3] | viscosity, x1 = 0.0111 [mPa·s] | viscosity, x1 = 0.0262 [mPa·s] | viscosity, x1 = 0.0279 [mPa·s] | viscosity, x1 = 0.1147 [mPa·s] | viscosity, x1 = 0.176 [mPa·s]
283.15 K | 988.73 | 979.82 | 957.85 | 944.97 | 895.9 | 1.313 | 1.428 | 1.352 | 1.559 | 1.713
293.15 K | 986.79 | 977.5 | 954.52 | 941.01 | 889.82 | 1.025 | 1.074 | 1.046 | 1.157 | 1.289
303.15 K | 983.98 | 974.43 | 950.65 | 936.67 | – | 0.8106 | 0.845 | 0.8278 | 0.9025 | 0.9955
313.15 K | 980.32 | 970.59 | 946.14 | 931.7 | – | 0.672 | 0.7124 | 0.6922 | 0.7653 | 0.8467
323.15 K | 975.98 | 966.09 | 940.98 | 926.12 | – | 0.5645 | 0.5945 | 0.5795 | 0.6297 | 0.6829

C1CNCCN1 [piperazine] + O
Conditions | mass density, x1 = 0.00181 [kg/m3] | mass density, x1 = 0.00367 [kg/m3] | mass density, x1 = 0.00741 [kg/m3] | mass density, x1 = 0.01119 [kg/m3] | mass density, x1 = 0.01938 [kg/m3] | viscosity, x1 = 0.000906 [mPa·s] | viscosity, x1 = 0.00182 [mPa·s] | viscosity, x1 = 0.00366 [mPa·s] | viscosity, x1 = 0.00553 [mPa·s] | viscosity, x1 = 0.00742 [mPa·s]
283.15 K | 1000.15 | 1000.51 | 1001.34 | 1002.24 | 1004.7 | 1.33 | 1.362 | 1.393 | 1.462 | 1.533
293.15 K | 998.63 | 998.98 | 999.75 | 1000.58 | 1002.52 | 1.012 | 1.043 | 1.092 | 1.119 | 1.174
303.15 K | 996.1 | 996.42 | 997.15 | 997.91 | 999.69 | 0.8241 | 0.8339 | 0.8791 | 0.8894 | 0.9414
313.15 K | 992.66 | 992.99 | 993.68 | 994.37 | 996.04 | 0.6757 | 0.6868 | 0.7176 | 0.7531 | 0.78
323.15 K | 988.51 | 988.81 | 989.47 | 990.14 | 991.64 | 0.5816 | 0.5923 | 0.621 | 0.6448 | 0.6604

O [water] + C1CNCCN1
x2 = 0
Conditions | mass density [kg/m3] | viscosity [mPa·s]
283.15 K | 999.7 | 1.307
293.15 K | – | 1.002
303.15 K | – | 0.7977
313.15 K | – | 0.6532
323.15 K | 988.04 | 0.547

O [water] + N
x2 = 0
Conditions | mass density [kg/m3] | viscosity [mPa·s]
283.15 K | 999.7 | 1.307
293.15 K | – | 1.002
303.15 K | – | 0.7977
313.15 K | – | 0.6532
323.15 K | 988.04 | 0.547
